Source: PubChem BioAssay (NCI)
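All cell lines were grown in 96-well plates and treated with compound for 48 hours. Here, GI50 denotes the concentration required for 50% inhibition of growth. TGI denotes the concentration required for complete inhibition of growth.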

Columns and labels:
Assay in all cases: inhibition of tumour cell growth, NCI panel, 48 h
MCF7 breast = test system: MCF7 breast
CCRF-CEM leukemia = test system: CCRF-CEM leukemia
HCC-2998 colon = test system: HCC-2998 colon
SF-539 CNS = test system: SF-539 CNS
MALME-3M melanoma = test system: MALME-3M melanoma
T-47D breast = test system: T-47D breast
OVCAR-4 ovarian = test system: OVCAR-4 ovarian
ACHN renal = test system: ACHN renal
SF-295 CNS = test system: SF-295 CNS
SW-620 colon = test system: SW-620 colon
IGROV1 ovarian = test system: IGROV1 ovarian
SF-268 CNS = test system: SF-268 CNS
SN12C renal = test system: SN12C renal
SR leukemia = test system: SR leukemia
SK-OV-3 ovarian = test system: SK-OV-3 ovarian
A549 NSCLC = test system: A549 NSCLC
NCI-H23 lung = test system: NCI-H23 lung
RXF 393 renal = test system: RXF 393 renal
K-562 leukemia = test system: K-562 leukemia
SNB-75 CNS = test system: SNB-75 CNS
CAKI-1 renal = test system: CAKI-1 renal
HT29 colon = test system: HT29 colon
HOP-62 NSCLC = test system: HOP-62 NSCLC
EKVX NSCLC = test system: EKVX NSCLC
MDA-MB-468 breast = test system: MDA-MB-468 breast
SK-MEL-5 melanoma = test system: SK-MEL-5 melanoma
NCI/ADR-RES ovarian = test system: NCI/ADR-RES ovarian
MOLT-4 leukemia = test system: MOLT-4 leukemia
MDA-MB-435 = test system: MDA-MB-435
OVCAR-5 ovarian = test system: OVCAR-5 ovarian
HS 578T breast = test system: HS 578T breast
BT-549 breast = test system: BT-549 breast
NCI-H460 lung = test system: NCI-H460 lung
OVCAR-8 ovarian = test system: OVCAR-8 ovarian
786-0 renal = test system: 786-0 renal
NCI-H226 lung = test system: NCI-H226 lung
UACC-257 melanoma = test system: UACC-257 melanoma
SK-MEL-2 melanoma = test system: SK-MEL-2 melanoma
HOP-92 NSCLC = test system: HOP-92 NSCLC
UO-31 renal = test system: UO-31 renal
HCT-15 colon = test system: HCT-15 colon
COLO 205 colon = test system: COLO 205 colon
HL-60(TB) leukemia = test system: HL-60(TB) leukemia
PC-3 prostate = test system: PC-3 prostate
NCI-H522 lung = test system: NCI-H522 lung
SNB-19 CNS = test system: SNB-19 CNS
MDA-MB-231 breast = test system: MDA-MB-231 breast
U251 CNS = test system: U251 CNS
LOX IMVI melanoma = test system: LOX IMVI melanoma
DU-145 prostate = test system: DU-145 prostate
SK-MEL-28 melanoma = test system: SK-MEL-28 melanoma
UACC-62 melanoma = test system: UACC-62 melanoma
OVCAR-3 ovarian = test system: OVCAR-3 ovarian
TK-10 renal = test system: TK-10 renal
RPMI-8226 leukemia = test system: RPMI-8226 leukemia
A498 renal = test system: A498 renal
M14 melanoma = test system: M14 melanoma
KM12 colon = test system: KM12 colon

With `CN1CCN(c2ccc(Nc3nc(NCCCNC(=O)c4ccc(F)cc4)c4sccc4n3)cc2)CC1` as the compound, how does the GI50 (MCF7 breast) read?
The GI50 was 2.67 µM.

What about the TGI (MCF7 breast) of the same compound?
Its TGI is 11.1 µM.

And the GI50 (CCRF-CEM leukemia)?
Its GI50 is 1.92 µM.

What about the TGI (CCRF-CEM leukemia) of the same compound?
The TGI was 4.99 µM.

And the GI50 (HCC-2998 colon)?
Its GI50 is 3.38 µM.

And the TGI (HCC-2998 colon)?
The TGI was 11.9 µM.

What about the GI50 (SF-539 CNS) of the same compound?
The GI50 was 1.69 µM.

What about the TGI (SF-539 CNS) of the same compound?
Its TGI is 3.16 µM.

What about the GI50 (MALME-3M melanoma) of the same compound?
Its GI50 is 1.79 µM.

What about the TGI (MALME-3M melanoma) of the same compound?
The TGI was 3.2 µM.

What about the GI50 (T-47D breast) of the same compound?
Its GI50 is 2.64 µM.

What about the TGI (T-47D breast) of the same compound?
Its TGI is 13.7 µM.

And the GI50 (OVCAR-4 ovarian)?
The GI50 was 5.84 µM.

And the TGI (OVCAR-4 ovarian)?
Its TGI is 29.5 µM.

And the GI50 (ACHN renal)?
The GI50 was 3.04 µM.

What about the TGI (ACHN renal) of the same compound?
The TGI was 13.2 µM.

And the GI50 (SF-295 CNS)?
Its GI50 is 1.83 µM.

What about the TGI (SF-295 CNS) of the same compound?
Its TGI is 4.2 µM.

And the GI50 (SW-620 colon)?
The GI50 was 3.04 µM.

And the TGI (SW-620 colon)?
The TGI was 10.2 µM.

What about the GI50 (IGROV1 ovarian) of the same compound?
Its GI50 is 5.98 µM.

What about the TGI (IGROV1 ovarian) of the same compound?
Its TGI is 19.9 µM.

What about the GI50 (SF-268 CNS) of the same compound?
The GI50 was 4.38 µM.

What about the TGI (SF-268 CNS) of the same compound?
The TGI was 22.4 µM.

And the GI50 (SN12C renal)?
Its GI50 is 10.5 µM.

And the TGI (SN12C renal)?
Its TGI is 23.3 µM.

And the GI50 (SR leukemia)?
The GI50 was 1.71 µM.

What about the TGI (SR leukemia) of the same compound?
Its TGI is 4.6 µM.

What about the GI50 (SK-OV-3 ovarian) of the same compound?
The GI50 was 16.5 µM.

What about the TGI (SK-OV-3 ovarian) of the same compound?
Its TGI is 34.1 µM.

And the GI50 (A549 NSCLC)?
Its GI50 is 4.77 µM.

What about the TGI (A549 NSCLC) of the same compound?
The TGI was 22.2 µM.

What about the GI50 (NCI-H23 lung) of the same compound?
Its GI50 is 10.3 µM.

What about the TGI (NCI-H23 lung) of the same compound?
Its TGI is 24.9 µM.

And the GI50 (RXF 393 renal)?
The GI50 was 1.45 µM.

And the TGI (RXF 393 renal)?
The TGI was 3.25 µM.

What about the GI50 (K-562 leukemia) of the same compound?
The GI50 was 1.41 µM.

What about the TGI (K-562 leukemia) of the same compound?
The TGI was 4.72 µM.

And the GI50 (SNB-75 CNS)?
The GI50 was 7.14 µM.

What about the TGI (SNB-75 CNS) of the same compound?
Its TGI is 21.5 µM.

What about the GI50 (CAKI-1 renal) of the same compound?
The GI50 was 3.43 µM.

What about the TGI (CAKI-1 renal) of the same compound?
Its TGI is 15.2 µM.

And the GI50 (HT29 colon)?
The GI50 was 2.46 µM.

What about the TGI (HT29 colon) of the same compound?
The TGI was 7.78 µM.

What about the GI50 (HOP-62 NSCLC) of the same compound?
Its GI50 is 16.4 µM.

And the TGI (HOP-62 NSCLC)?
Its TGI is 35.7 µM.

What about the GI50 (EKVX NSCLC) of the same compound?
The GI50 was 12.4 µM.

What about the TGI (EKVX NSCLC) of the same compound?
The TGI was 25.5 µM.

And the GI50 (MDA-MB-468 breast)?
Its GI50 is 1.46 µM.

And the TGI (MDA-MB-468 breast)?
The TGI was 4.82 µM.

What about the GI50 (SK-MEL-5 melanoma) of the same compound?
Its GI50 is 2.08 µM.

What about the TGI (SK-MEL-5 melanoma) of the same compound?
The TGI was 4.95 µM.

And the GI50 (NCI/ADR-RES ovarian)?
The GI50 was 4.18 µM.

And the TGI (NCI/ADR-RES ovarian)?
Its TGI is 24.9 µM.

And the GI50 (MOLT-4 leukemia)?
Its GI50 is 1.67 µM.

And the TGI (MOLT-4 leukemia)?
The TGI was 5.38 µM.

And the GI50 (MDA-MB-435)?
The GI50 was 4.3 µM.

And the TGI (MDA-MB-435)?
The TGI was 16.1 µM.

What about the GI50 (OVCAR-5 ovarian) of the same compound?
Its GI50 is 11.7 µM.

And the TGI (OVCAR-5 ovarian)?
Its TGI is 26 µM.

What about the GI50 (HS 578T breast) of the same compound?
Its GI50 is 6.09 µM.

And the TGI (HS 578T breast)?
The TGI was 32.2 µM.

And the GI50 (BT-549 breast)?
The GI50 was 4.39 µM.

And the TGI (BT-549 breast)?
The TGI was 16.7 µM.

What about the GI50 (NCI-H460 lung) of the same compound?
The GI50 was 3.25 µM.

What about the TGI (NCI-H460 lung) of the same compound?
The TGI was 12.8 µM.

And the GI50 (OVCAR-8 ovarian)?
Its GI50 is 4.14 µM.

What about the TGI (OVCAR-8 ovarian) of the same compound?
Its TGI is 51.2 µM.

What about the GI50 (786-0 renal) of the same compound?
Its GI50 is 1.91 µM.

And the TGI (786-0 renal)?
The TGI was 5.45 µM.

And the GI50 (NCI-H226 lung)?
Its GI50 is 11.3 µM.

And the TGI (NCI-H226 lung)?
Its TGI is 23.9 µM.

And the GI50 (UACC-257 melanoma)?
Its GI50 is 2.14 µM.

What about the TGI (UACC-257 melanoma) of the same compound?
The TGI was 4.94 µM.

And the GI50 (SK-MEL-2 melanoma)?
The GI50 was 14.5 µM.

What about the TGI (SK-MEL-2 melanoma) of the same compound?
The TGI was 28.3 µM.

What about the GI50 (HOP-92 NSCLC) of the same compound?
Its GI50 is 7.45 µM.

What about the TGI (HOP-92 NSCLC) of the same compound?
Its TGI is 28.2 µM.

And the GI50 (UO-31 renal)?
Its GI50 is 11.7 µM.

What about the TGI (UO-31 renal) of the same compound?
The TGI was 23.9 µM.

What about the GI50 (HCT-15 colon) of the same compound?
Its GI50 is 2.31 µM.

What about the TGI (HCT-15 colon) of the same compound?
Its TGI is 8.13 µM.

And the GI50 (COLO 205 colon)?
The GI50 was 5.29 µM.

What about the TGI (COLO 205 colon) of the same compound?
Its TGI is 20.5 µM.

What about the GI50 (HL-60(TB) leukemia) of the same compound?
Its GI50 is 1.52 µM.

What about the TGI (HL-60(TB) leukemia) of the same compound?
The TGI was 3.39 µM.

And the GI50 (PC-3 prostate)?
Its GI50 is 3.19 µM.

What about the TGI (PC-3 prostate) of the same compound?
The TGI was 16.6 µM.

And the GI50 (NCI-H522 lung)?
The GI50 was 1.77 µM.

And the TGI (NCI-H522 lung)?
The TGI was 3.92 µM.

What about the GI50 (SNB-19 CNS) of the same compound?
The GI50 was 7.97 µM.

What about the TGI (SNB-19 CNS) of the same compound?
The TGI was 20.6 µM.

What about the GI50 (MDA-MB-231 breast) of the same compound?
Its GI50 is 4.15 µM.

And the TGI (MDA-MB-231 breast)?
Its TGI is 14.5 µM.

And the GI50 (U251 CNS)?
The GI50 was 3.01 µM.

What about the TGI (U251 CNS) of the same compound?
Its TGI is 10.5 µM.

What about the GI50 (LOX IMVI melanoma) of the same compound?
The GI50 was 1.67 µM.

And the TGI (LOX IMVI melanoma)?
Its TGI is 3.31 µM.

And the GI50 (DU-145 prostate)?
The GI50 was 7.65 µM.

What about the TGI (DU-145 prostate) of the same compound?
The TGI was 21 µM.

What about the GI50 (SK-MEL-28 melanoma) of the same compound?
Its GI50 is 1.77 µM.

What about the TGI (SK-MEL-28 melanoma) of the same compound?
Its TGI is 3.45 µM.

What about the GI50 (UACC-62 melanoma) of the same compound?
The GI50 was 2.04 µM.

What about the TGI (UACC-62 melanoma) of the same compound?
The TGI was 4.58 µM.

And the GI50 (OVCAR-3 ovarian)?
The GI50 was 3.52 µM.

And the TGI (OVCAR-3 ovarian)?
Its TGI is 13.3 µM.

What about the GI50 (TK-10 renal) of the same compound?
The GI50 was 5.55 µM.

What about the TGI (TK-10 renal) of the same compound?
The TGI was 17.7 µM.

And the GI50 (RPMI-8226 leukemia)?
Its GI50 is 1.79 µM.

And the TGI (RPMI-8226 leukemia)?
Its TGI is 4.25 µM.

And the GI50 (A498 renal)?
The GI50 was 18.8 µM.

What about the TGI (A498 renal) of the same compound?
The TGI was 32.8 µM.

And the GI50 (M14 melanoma)?
Its GI50 is 1.83 µM.

What about the TGI (M14 melanoma) of the same compound?
The TGI was 3.59 µM.

And the GI50 (KM12 colon)?
Its GI50 is 4.32 µM.

What about the TGI (KM12 colon) of the same compound?
Its TGI is 18.2 µM.
